From patent publication US4263318A, “N-alkoxy- and N-aryloxysulfinylcarbamate esters” (priority 1979, dated 1981)
Read-outs that look alike come from different tables or passages of the source.

Tests used:
Format in all cases: in vivo
[1] = Mammalian toxicity, oral, Swiss white mice; conditions: mouse, in vivo
Experimental: (§1) Mammalian toxicity was determined against Swiss white mice.

[2] = tested on: house flies, Musca domestica; assay: Insecticidal activity against house flies (topical on the notum, mortality at 24 h); conditions: for LD50: Musca domestica, topical, read-out: House flies LD50
Experimental: (§2) Representative compounds of the N-aryloxy- and N-alkoxysulfinylcarbamate esters of the invention were tested for insecticidal activity against two insect species, house flies, Musca domestica, and mosquito larvae, Culex pipiens. Stock 1% concentrated solutions of each of the test compounds were made in acetone, and such solutions diluted with acetone to a concentration of 0.001-0.1%. House files were treated topically on the notum by 1 μL of each of the diluted acetone solutions and percent mortality was counted 24 hours after application. Insects were held at a constant temperature of 60° F. Larvicidal activity was determined by applying 1 ml of the acetone solutions in 100 ml of water containing 20 3rd instar mosquito larvae. Results are presented as LD50 in μg/g for house flies and LC50 in ppm for mosquito larvae.

[3] = tested on: mosquito larvae, Culex pipiens; assay: Larvicidal activity against mosquito larvae; conditions: 1 ml acetone solution in 100 ml water containing 20 3rd instar larvae
Experimental: as §2

Swiss white mice = assay: Mammalian toxicity, oral, Swiss white mice; conditions: compared with aldicarb / carbofuran
Experimental: as §1

[4] = oral, corn oil carrier, read-out: Mice LD50
[5] = 1 μL acetone solution on the notum, mortality 24 hours after application, 60° F

CN(C(=O)Oc1cccc2c1OC(C)(C)C2)S(=O)OC(C)(C)C (centres unmarked) [II, 2,3-dihydro-2,2-dimethylbenzofuranyl-7(methyl)(t-butoxysulfinyl)carbamate]
LD50 [1, 4]: 40 mg/kg
LD50 ([2]; 24 h): 2.2 mg/kg
Culex LC50 [3]: 0.0058 ppm

CCCCCCOS(=O)N(C)C(=O)Oc1cccc2c1OC(C)(C)C2 (centres unmarked) [Example I, 2,3-dihydro-2,2-dimethylbenzofuranyl-7(methyl)(hexoxysulfinyl)carbamate]
LD50 [1, 4]: 280 mg/kg
LD50 ([2]; 24 h): 13 mg/kg
Culex LC50 [3]: 0.0025 ppm

CCCCCCOS(=O)N(C)C(=O)Oc1cccc(C(C)C)c1 (centres unmarked) [VII, 3-isopropylphenyl (methyl)(n-hexoxysulfinyl)carbamate]
LD50 [1, 4]: > 1000 mg/kg
LD50 ([2]; 24 h): 80 mg/kg

CCCCOS(=O)N(C)C(=O)Oc1cccc(C(C)C)c1 (centres unmarked) [VI, 3-isopropylphenyl (methyl)(n-butoxysulfinyl)carbamate]
LD50 ([2]; 24 h): 50 mg/kg

CN(C(=O)Oc1cccc2c1OC(C)(C)C2)S(=O)Oc1ccccc1 (centres unmarked) [IV, 2,3-dihydro-2,2-dimethylbenzofuranyl-7(methyl)(phenoxysulfinyl)carbamate]
LD50 [1, 4]: 42 mg/kg
LD50 ([2]; 24 h): 6.4 mg/kg
Culex LC50 [3]: 0.0055 ppm

CC(C)Oc1ccccc1OC(=O)N(C)S(=O)OC(C)(C)C (centres unmarked) [IX, 2-isopropoxyphenyl (methyl)(t-butoxysulfinyl)carbamate]
LD50 [1, 4]: 400 mg/kg
LD50 ([2]; 24 h): 65 mg/kg

Cc1cccc(C)c1OS(=O)N(C)C(=O)Oc1cccc2c1OC(C)(C)C2 (centres unmarked) [V, 2,3-dihydro-2,2-dimethylbenzofuranyl-7(methyl)(2,6-dimethylphenoxysulfinyl)carbamate]
LD50 [1, 4]: 100 mg/kg
LD50 ([2]; 24 h): 13.5 mg/kg

CCCCCCCCCCOS(=O)N(C)C(=O)ON=CC(C)(C)SC (centres unmarked) [XII, 2-methyl-2-(methylthio)propionaldehyde O-[(methyl)(decoxysulfinyl)carbamoyl]oxime]
mammalian safety/toxicity compared with parent carbamate (Swiss white mice): much safer to mammals
LD50 [1, 4]: 60 mg/kg
LD50 [2, 5]: 11.5 mg/kg
toxicity to house flies compared with parent carbamate ([2]; compared with aldicarb / carbofuran): comparable toxicity
Culex LC50 [3]: 0.006 ppm

CNC(=O)O/N=C/C(C)(C)SC [aldicarb, 2-methyl-2-(methylthio)propionaldehyde 0-(methylcarbamoyl)oxime, reference compound]
LD50 ([1]; po, comparison value for parent aldicarb, read-out: LD50 (parent carbamate aldicarb, mammalian toxicity, text)): 0.3 to 0.5 mg/kg

CCCCCCOS(=O)N(C)C(=O)Oc1cccc2ccccc12 (centres unmarked) [XIII, 1-naphthyl(methyl)(hexoxysulfinyl)carbamate]
LD50 [1, 4]: > 1000 mg/kg
LD50 ([2]; 24 h): 360 mg/kg

CCCCCCOS(=O)N(C)C(=O)ON=C(C)SC (centres unmarked) [X, S-methyl N-[N'-methyl-N'-hexoxysulfinylcarbamoyloxy]thioacetimidate]
LD50 [1, 4]: 260 mg/kg
LD50 [2, 5]: 6.5 mg/kg

CCCCCCOS(=O)N(C)C(=O)Oc1ccccc1OC(C)C (centres unmarked) [VIII, 2-isopropoxyphenyl (methyl)(n-hexoxysulfinyl)carbamate]
LD50 [1, 4]: > 1000 mg/kg
LD50 ([2]; 24 h): 42 mg/kg
Culex LC50 [3]: 0.01 ppm

CCCCOS(=O)N(C)C(=O)ON=C(C)SC (centres unmarked) [XI, S-methyl N-[N'-methyl-N'-butoxysulfinylcarbamoyloxy]thioacetimidate]
LD50 [2, 5]: 5.5 mg/kg

CCCCOS(=O)N(C)C(=O)Oc1cccc2c1OC(C)(C)C2 (centres unmarked) [III, 2,3-dihydro-2,2-dimethylbenzofuranyl-7(methyl)(n-butoxysulfinyl)carbamate]
LD50 [1, 4]: 160 mg/kg
LD50 ([2]; 24 h): 16 mg/kg
